Reference: patent EP1001761B1, “USE OF CHOL[…] TREATING ATTENTION DEFICIT DISORDERS” (priority 1997, dated 1999)
Counter-ions that a name gives are not always drawn.

Tests used:
patients with ADD = test: treatment of two ADD patients, measured by ANT (Amsterdam Neuropsychological Tests), reaction times for different tasks; type: in vivo; details: for After: mean / After: miss (Missed task) / After: Fa (Failed attempt): after treatment
Description: The protocol in this case is first a baseline testing before medication and retesting after 2 days on medication and then after a week repeated testing. Ecological scales were also used before and are now being evaluated after one week after two weeks etc. for a treatment of one month duration.

solubility in water = type: physicochemical; details: room temperature
Protocol: Galantamine and its acid addition salts form crystals. […] If necessary, pharmaceutically-acceptable suspension aids may be employed. Typically, such a suspension will be employed at a concentration of 0.1-50 mg/ml, such as 1-50 mg/ml, more commonly 5-40 mg/ml, for example, 5-30 mg/ml or 10-40 mg/ml, such as 10-30 mg/ml, especially 20-30 mg/ml of galantamine.

Row | SMILES | improvement in attention (reduction in time to complete certain tasks and with fewer errors), normalized data, error analysis (patients with ADD; two patients, 2.5 mg 3 times a day) | After: mean (patients with ADD; Patient A, task Baseline) [ms] | After: mean (patients with ADD; Patient A, task Focused Att.) [ms] | After: miss (Missed task) (patients with ADD; Patient A, task Focused Att.) | After: Fa (Failed attempt) (patients with ADD; Patient A, task GoNoGo) | After: mean (patients with ADD; Patient A, task GoNoGo) [ms] | After: miss (Missed task) (patients with ADD; Patient A, task GoNoGo) | After: Fa (Failed attempt) (patients with ADD; Patient A, task Sustained Att.) | After: mean (patients with ADD; Patient A, task Sustained Att.) [ms] | After: miss (Missed task) (patients with ADD; Patient A, task Sustained Att.) | After: mean (patients with ADD; Patient B, task Baseline) [ms] | After: mean (patients with ADD; Patient B, task Focused Att.) [ms] | After: miss (Missed task) (patients with ADD; Patient B, task Focused Att.) | After: Fa (Failed attempt) (patients with ADD; Patient B, task GoNoGo) | After: mean (patients with ADD; Patient B, task GoNoGo) [ms] | After: miss (Missed task) (patients with ADD; Patient B, task GoNoGo) | After: Fa (Failed attempt) (patients with ADD; Patient B, task Sustained Att.) | After: mean (patients with ADD; Patient B, task Sustained Att.) [ms] | After: miss (Missed task) (patients with ADD; Patient B, task Sustained Att.) | solubility in water (solubility in water)
1 | COc1ccc2c3c1O[C@H]1C[C@@H](O)C=C[C@@]31CCN(C)C2 [galantamine hydrobromide] | over 2.5 standard deviations |  |  |  |  |  |  |  |  |  |  |  |  |  |  |  |  |  |  | 
2 | COc1ccc2c3c1O[C@H]1C[C@@H](O)C=C[C@@]31CCN(C)C2 [galantamine] |  | 727 | 1352 | 0 | 2 | 655 | 1 | 6 | 1222 | 4 | 780 | 1166 | 3 | 3 | 766 | 3 | 50 | 1152 | 20 | only sparingly soluble
